Reference: the NIST ThermoML archive (doi:10.1021/acs.jced.7b00769)
Numbers after ± are expanded uncertainties.

Test: xn = mol fraction of the nth substance listed
Conditions: Gas, isochoric method

F/C=C\C(F)(F)F [(Z)-1,3,3,3-tetrafluoro-1-propene] + CC(C)C
specific volume (303.15 K, 145.9 kPa, x2 = 0.118): 0.152 ± 0.0022 m3/kg | specific volume (303.15 K, 155.7 kPa, x2 = 0.222): 0.1514 ± 0.002 m3/kg | specific volume (303.15 K, 206.5 kPa, x2 = 0.427): 0.127 ± 0.0012 m3/kg | specific volume (303.15 K, 213.5 kPa, x2 = 0.51): 0.1286 ± 0.0012 m3/kg | specific volume (308.15 K, 148.7 kPa, x2 = 0.118): 0.152 ± 0.0026 m3/kg | specific volume (308.15 K, 158.6 kPa, x2 = 0.222): 0.1514 ± 0.0006 m3/kg | specific volume (308.15 K, 210.5 kPa, x2 = 0.427): 0.127 ± 0.0012 m3/kg | specific volume (308.15 K, 217.4 kPa, x2 = 0.51): 0.1286 ± 0.0012 m3/kg | specific volume (313.15 K, 151.4 kPa, x2 = 0.118): 0.1521 ± 0.0021 m3/kg | specific volume (313.15 K, 161.5 kPa, x2 = 0.222): 0.1515 ± 0.0007 m3/kg | specific volume (313.15 K, 214.4 kPa, x2 = 0.427): 0.1271 ± 0.0012 m3/kg | specific volume (313.15 K, 221.3 kPa, x2 = 0.51): 0.1286 ± 0.0012 m3/kg | specific volume (313.15 K, 398.1 kPa, x2 = 0.658): 0.0757 ± 0.0009 m3/kg | specific volume (318.15 K, 154 kPa, x2 = 0.118): 0.1521 ± 0.0007 m3/kg | specific volume (318.15 K, 164.3 kPa, x2 = 0.222): 0.1515 ± 0.0008 m3/kg | specific volume (318.15 K, 218.3 kPa, x2 = 0.427): 0.1271 ± 0.0012 m3/kg | specific volume (318.15 K, 225.2 kPa, x2 = 0.51): 0.1287 ± 0.0012 m3/kg | specific volume (318.15 K, 362.3 kPa, x2 = 0.725): 0.0906 ± 0.0047 m3/kg | specific volume (318.15 K, 406.6 kPa, x2 = 0.658): 0.0758 ± 0.004 m3/kg | specific volume (323.15 K, 156.8 kPa, x2 = 0.118): 0.1521 ± 0.0015 m3/kg | specific volume (323.15 K, 167.2 kPa, x2 = 0.222): 0.1515 ± 0.0007 m3/kg | specific volume (323.15 K, 222.2 kPa, x2 = 0.427): 0.1271 ± 0.0012 m3/kg | specific volume (323.15 K, 229.2 kPa, x2 = 0.51): 0.1287 ± 0.0012 m3/kg | specific volume (323.15 K, 369.1 kPa, x2 = 0.725): 0.0906 ± 0.004 m3/kg | specific volume (323.15 K, 414.5 kPa, x2 = 0.658): 0.0758 ± 0.004 m3/kg | specific volume (328.15 K, 159.4 kPa, x2 = 0.118): 0.1522 ± 0.0007 m3/kg | specific volume (328.15 K, 170 kPa, x2 = 0.222): 0.1516 ± 0.0013 m3/kg | specific volume (328.15 K, 226 kPa, x2 = 0.427): 0.1271 ± 0.0012 m3/kg | specific volume (328.15 K, 233.1 kPa, x2 = 0.51): 0.1287 ± 0.0012 m3/kg | specific volume (328.15 K, 375.8 kPa, x2 = 0.725): 0.0906 ± 0.004 m3/kg | specific volume (328.15 K, 423.1 kPa, x2 = 0.658): 0.0758 ± 0.0026 m3/kg | specific volume (333.15 K, 162 kPa, x2 = 0.118): 0.1522 ± 0.0013 m3/kg | specific volume (333.15 K, 172.7 kPa, x2 = 0.222): 0.1516 ± 0.0006 m3/kg | specific volume (333.15 K, 229.8 kPa, x2 = 0.427): 0.1272 ± 0.0012 m3/kg | specific volume (333.15 K, 237 kPa, x2 = 0.51): 0.1287 ± 0.0012 m3/kg | specific volume (333.15 K, 382.5 kPa, x2 = 0.725): 0.0907 ± 0.0041 m3/kg | specific volume (333.15 K, 430.7 kPa, x2 = 0.658): 0.0758 ± 0.0041 m3/kg | specific volume (338.15 K, 164.6 kPa, x2 = 0.118): 0.1522 ± 0.0008 m3/kg | specific volume (338.15 K, 175.4 kPa, x2 = 0.222): 0.1516 ± 0.0012 m3/kg | specific volume (338.15 K, 233.6 kPa, x2 = 0.427): 0.1272 ± 0.0012 m3/kg | specific volume (338.15 K, 240.9 kPa, x2 = 0.51): 0.1288 ± 0.0012 m3/kg | specific volume (338.15 K, 389.1 kPa, x2 = 0.725): 0.0907 ± 0.0041 m3/kg | specific volume (338.15 K, 438.4 kPa, x2 = 0.658): 0.0758 ± 0.0041 m3/kg | specific volume (343.15 K, 167.2 kPa, x2 = 0.118): 0.1523 ± 0.0009 m3/kg | specific volume (343.15 K, 178.2 kPa, x2 = 0.222): 0.1517 ± 0.0014 m3/kg | specific volume (343.15 K, 237.3 kPa, x2 = 0.427): 0.1272 ± 0.0012 m3/kg | specific volume (343.15 K, 244.7 kPa, x2 = 0.51): 0.1288 ± 0.0012 m3/kg | specific volume (343.15 K, 395.8 kPa, x2 = 0.725): 0.0907 ± 0.0041 m3/kg | specific volume (343.15 K, 446 kPa, x2 = 0.658): 0.0758 ± 0.0041 m3/kg | specific volume (348.15 K, 169.8 kPa, x2 = 0.118): 0.1523 ± 0.0011 m3/kg | specific volume (348.15 K, 180.8 kPa, x2 = 0.222): 0.1517 ± 0.0007 m3/kg | specific volume (348.15 K, 241.1 kPa, x2 = 0.427): 0.1272 ± 0.0011 m3/kg | specific volume (348.15 K, 248.6 kPa, x2 = 0.51): 0.1288 ± 0.0011 m3/kg | specific volume (348.15 K, 402.5 kPa, x2 = 0.725): 0.0907 ± 0.0054 m3/kg | specific volume (348.15 K, 453.6 kPa, x2 = 0.658): 0.0759 ± 0.004 m3/kg | specific volume (353.15 K, 172.5 kPa, x2 = 0.118): 0.1523 ± 0.003 m3/kg | specific volume (353.15 K, 183.7 kPa, x2 = 0.222): 0.1517 ± 0.0006 m3/kg | specific volume (353.15 K, 244.7 kPa, x2 = 0.427): 0.1273 ± 0.0011 m3/kg | specific volume (353.15 K, 252.4 kPa, x2 = 0.51): 0.1288 ± 0.0011 m3/kg | specific volume (353.15 K, 409.1 kPa, x2 = 0.725): 0.0907 ± 0.0028 m3/kg | specific volume (353.15 K, 461.2 kPa, x2 = 0.658): 0.0759 ± 0.0023 m3/kg | specific volume (358.15 K, 175.1 kPa, x2 = 0.118): 0.1524 ± 0.001 m3/kg | specific volume (358.15 K, 186.5 kPa, x2 = 0.222): 0.1518 ± 0.0006 m3/kg | specific volume (358.15 K, 248.6 kPa, x2 = 0.427): 0.1273 ± 0.0011 m3/kg | specific volume (358.15 K, 256.3 kPa, x2 = 0.51): 0.1289 ± 0.0011 m3/kg | specific volume (358.15 K, 415.6 kPa, x2 = 0.725): 0.0908 ± 0.0023 m3/kg | specific volume (358.15 K, 468.5 kPa, x2 = 0.658): 0.0759 ± 0.0041 m3/kg | specific volume (363.15 K, 177.7 kPa, x2 = 0.118): 0.1524 ± 0.0021 m3/kg | specific volume (363.15 K, 189.4 kPa, x2 = 0.222): 0.1518 ± 0.0006 m3/kg | specific volume (363.15 K, 252.3 kPa, x2 = 0.427): 0.1273 ± 0.0011 m3/kg | specific volume (363.15 K, 260.1 kPa, x2 = 0.51): 0.1289 ± 0.0011 m3/kg | specific volume (363.15 K, 422.1 kPa, x2 = 0.725): 0.0908 ± 0.0041 m3/kg | specific volume (363.15 K, 476 kPa, x2 = 0.658): 0.0759 ± 0.0041 m3/kg | specific volume (368.15 K, 180.3 kPa, x2 = 0.118): 0.1524 ± 0.0011 m3/kg | specific volume (368.15 K, 192.1 kPa, x2 = 0.222): 0.1518 ± 0.0006 m3/kg | specific volume (368.15 K, 256 kPa, x2 = 0.427): 0.1274 ± 0.0011 m3/kg | specific volume (368.15 K, 263.9 kPa, x2 = 0.51): 0.1289 ± 0.0011 m3/kg | specific volume (368.15 K, 428.6 kPa, x2 = 0.725): 0.0908 ± 0.0041 m3/kg | specific volume (368.15 K, 483.4 kPa, x2 = 0.658): 0.0759 ± 0.0041 m3/kg | specific volume (373.15 K, 182.9 kPa, x2 = 0.118): 0.1525 ± 0.0012 m3/kg | specific volume (373.15 K, 194.9 kPa, x2 = 0.222): 0.1519 ± 0.0006 m3/kg | specific volume (373.15 K, 259.8 kPa, x2 = 0.427): 0.1274 ± 0.0011 m3/kg | specific volume (373.15 K, 267.8 kPa, x2 = 0.51): 0.129 ± 0.0011 m3/kg | specific volume (373.15 K, 435.2 kPa, x2 = 0.725): 0.0908 ± 0.0041 m3/kg | specific volume (373.15 K, 490.9 kPa, x2 = 0.658): 0.0759 ± 0.0059 m3/kg | specific volume (378.15 K, 185.5 kPa, x2 = 0.118): 0.1525 ± 0.0026 m3/kg | specific volume (378.15 K, 197.7 kPa, x2 = 0.222): 0.1519 ± 0.0006 m3/kg | specific volume (378.15 K, 263.6 kPa, x2 = 0.427): 0.1274 ± 0.0011 m3/kg | specific volume (378.15 K, 271.7 kPa, x2 = 0.51): 0.129 ± 0.0011 m3/kg | specific volume (378.15 K, 441.7 kPa, x2 = 0.725): 0.0908 ± 0.0059 m3/kg | specific volume (378.15 K, 498.2 kPa, x2 = 0.658): 0.076 ± 0.004 m3/kg | specific volume (383.15 K, 188.1 kPa, x2 = 0.118): 0.1525 ± 0.0026 m3/kg | specific volume (383.15 K, 200.5 kPa, x2 = 0.222): 0.1519 ± 0.0007 m3/kg | specific volume (383.15 K, 267.4 kPa, x2 = 0.427): 0.1274 ± 0.0011 m3/kg | specific volume (383.15 K, 275.5 kPa, x2 = 0.51): 0.129 ± 0.0011 m3/kg | specific volume (383.15 K, 448.3 kPa, x2 = 0.725): 0.0909 ± 0.0025 m3/kg | specific volume (383.15 K, 505.8 kPa, x2 = 0.658): 0.076 ± 0.0008 m3/kg
